System: AF/AFL patients
Test: EURIDIS and ADONIS post hoc analysis: adverse events and ECG changes by timing of amiodarone stop
Format: in vivo, human
Settings: for QTc-Fridericia > or = 500 msec: unit assumed
Description: Methods: In EURIDIS and ADONIS studies mentioned in the article of the New England Journal of Medicine, 357, 10, Sep.
Results: Dronedarone decreased AF/AFL recurrence compared to placebo (HR=0.64 [95% CI 0.44-0.95], P=0.022) in this subgroup. […] All the results are included in the table 1 below.
In the table above, “A” means Amiodarone, “D” means” dronedarone, “PI” means Placebo, “n” is the number of patients tested with “PI” or “D”.

[1] = A stopped more than 2 days before randomization, n = 35
[2] = A stopped within 2 days before randomization, n = 98
[3] = No amiodarone treatment before randomization, n = 680

## CCCCc1oc2ccc(NS(C)(=O)=O)cc2c1C(=O)c1ccc(OCCCN(CCCC)CCCC)cc1 [Dronedarone, 2-n-Butyl-3-[4-(3-di-n-butylaminopropoxy)benzoyl]-5-methylsul phonamidobenzofuran]
[1]
  Bradyarrhythmia (%) (under adverse events with drug discontinuation): 0%
  Bradyarrhythmia (%) (under serious adverse events): 0%
  PR-interval > or = 200 msec and increase > or = 20 msec versus baseline: 22.9
  Rate of Adverse Events with dronedarone discontinuation (%): 20.0%
  Rate of Serious adverse events (%): 17.1%
  QTc-Fridericia > or = 500 msec: 14.3%
[2]
  Bradyarrhythmia (%) (under adverse events with drug discontinuation): 3.1%
  Bradyarrhythmia (%) (under serious adverse events): 1%
  PR-interval > or = 200 msec and increase > or = 20 msec versus baseline: 25.8
  Rate of Adverse Events with dronedarone discontinuation (%): 8.2%
  Rate of Serious adverse events (%): 15.3%
  QTc-Fridericia > or = 500 msec: 7.9%
[3]
  Bradyarrhythmia (%) (under adverse events with drug discontinuation): 0.7%
  Bradyarrhythmia (%) (under serious adverse events): 1.3%
  PR-interval > or = 200 msec and increase > or = 20 msec versus baseline: 28.0
  Rate of Adverse Events with dronedarone discontinuation (%): 9.1%
  Rate of Serious adverse events (%): 13.7%
  QTc-Fridericia > or = 500 msec: 4.4%
Small patient cohort switched rapidly from A to D
  Tolerability: good tolerability

Reference: patent publication US20120329867A1 (SANOFI, priority 2010, published 2012)
